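Where inhibition never reached the appropriate level, the endpoint shown equals the highest concentration tested. Otherwise, values were interpolated linearly from a five-concentration, 48-hour dose response in 96-well plates. Here, GI50 denotes the concentration required for 50% inhibition of growth. TGI denotes the concentration required for complete inhibition of growth.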
Tests used:
Test in all cases: NCI-60 cell line screen, 48 h
A498 renal = system: A498 renal
BT-549 breast = system: BT-549 breast
CAKI-1 renal = system: CAKI-1 renal
HCC-2998 colon = system: HCC-2998 colon
HCT-116 colon = system: HCT-116 colon
HS 578T breast = system: HS 578T breast
LOX IMVI melanoma = system: LOX IMVI melanoma
MCF7 breast = system: MCF7 breast
MDA-MB-435 = system: MDA-MB-435
NCI-H23 lung = system: NCI-H23 lung
OVCAR-3 ovarian = system: OVCAR-3 ovarian
OVCAR-4 ovarian = system: OVCAR-4 ovarian
OVCAR-5 ovarian = system: OVCAR-5 ovarian
SN12C renal = system: SN12C renal
SNB-19 CNS = system: SNB-19 CNS
UACC-257 melanoma = system: UACC-257 melanoma

SMILES	TGI (A498 renal) [µM]	TGI (BT-549 breast) [µM]	TGI (CAKI-1 renal) [µM]	TGI (HCC-2998 colon) [µM]	GI50 (HCT-116 colon) [µM]	TGI (HCT-116 colon) [µM]	TGI (HS 578T breast) [µM]	TGI (LOX IMVI melanoma) [µM]	TGI (MCF7 breast) [µM]	GI50 (MDA-MB-435) [µM]	TGI (MDA-MB-435) [µM]	TGI (NCI-H23 lung) [µM]	GI50 (OVCAR-3 ovarian) [µM]	TGI (OVCAR-3 ovarian) [µM]	TGI (OVCAR-4 ovarian) [µM]	TGI (OVCAR-5 ovarian) [µM]	GI50 (SN12C renal) [µM]	TGI (SN12C renal) [µM]	TGI (SNB-19 CNS) [µM]	TGI (UACC-257 melanoma) [µM]
CCOc1cc2c(cc1O)/C(=N/NS(=O)(=O)c1ccc(C)cc1)C[C@@H]1[C@@H]2CC[C@]2(C)[C@@H](O)CC[C@@H]12	> 100	> 100	> 100	15.1	6.67	> 100	> 100	> 100	> 100	0.917	> 100	> 100	3.18	> 100	> 100	46.4	12.1	> 100	> 100	> 100
Cc1ccc(S(=O)(=O)NNC2(NS(=O)(=O)c3ccc(Cl)cc3)C(Cl)=C(Cl)C(=O)c3ccccc32)cc1 (configuration not stated)	36.7	29.1	32.4	33.2		32.4	54.8	65.1	37.3		36	34.1		42.1	30.1	33.4		31.6	29.8	32.6
Nc1ncnc2c1cnn2Cc1cn(COCC(O)CO)nn1 (configuration not stated)	> 100	> 100	> 100	> 100		> 100	32.8	> 100	> 100		> 100	> 100		> 100	> 100	> 100		> 100	> 100	> 100
CCOc1ccc(NCC2CC/C(=C\c3ccc(O)cc3)C2=O)cc1 (configuration not stated)	38.9	25.6	34.3	34		23.6	73.7	16.8	18.1		35.8	50.4		25.5	31.5	29		35.6	> 55.2	30.7
c1ccc2cc(CNCCOCCOCCNCc3ccc4ccccc4c3)ccc2c1	3.73	3.3	3.68	0.54		3.08	3.74	3.06	3.41		3.81	4		3.7	5.78	4		4.18	5.31	2.96
CCOc1cc2c(cc1OC(C)=O)C(=O)CC[C@H]1C3CC[C@H](OC(C)=O)[C@@]3(C)CC[C@H]21 (some centres not stated)	> 100	> 100	> 100	> 100		> 100	> 100	> 100	> 100		> 100	> 100		> 100	> 100	> 100			> 100	> 100
COc1cc(/C=C2\C(=O)N(Cc3ccccc3)C(c3ccccc3)S2(=O)=O)cc(OC)c1OC (configuration not stated)	> 100	> 100	> 100	> 100		> 100	> 100	> 100	> 100		> 100	> 100		> 100	> 100	> 100		> 100	> 100	> 100
O=C1/C(=C/c2ccccc2)CCC/C1=C\c1ccc(O)c(CN2CCCCC2)c1	12.5	10.5	18.8	5.46		2.97	15.1	4.08	19.2		7.5	15.1		22.9	13.8	37.9		9.53	26	18.5
Cc1ccc(S(=O)(=O)Nn2c(S)c(C#N)c(-c3ccc([N+](=O)[O-])cc3)c(C#N)c2=O)cc1	> 100	29.6	> 100	> 100		32.8	86.5	28.5	> 100		53.9				> 100	> 100		37.3		> 100
O=C(NCCc1ccccc1)c1c(O)c2ccccc2[nH]c1=O	> 100	> 100	> 100	> 100		> 100	> 100	> 100	> 100		> 100	> 100		> 100	> 100	> 100		> 100	> 100	> 100
O=C(Cc1ccccc1)NCCCN(CCCCN(CCCNC(=O)Cc1ccccc1)C(=O)OCc1ccccc1)C(=O)OCc1ccccc1	> 100	> 100		> 100		> 100	> 100	> 100	> 100		> 100	> 100		> 100	> 28.6	> 100		> 100		> 100
NC(=O)NC(=O)c1cccc(NC(=O)CF)c1	> 100	> 100	> 100	> 100		> 100	> 100	> 100	> 100		> 100	> 100		> 100	> 100	> 100		> 100	> 100	> 100
Cc1n[nH]c(=O)n1/N=C\CC/C=N\n1c(C)n[nH]c1=O	> 100	> 100	> 100	> 100		> 100	> 100	> 100	> 100		> 100	> 100		> 100	> 100	> 100		> 100	> 100	> 100
CN(C)CCn1c(=O)c2ccc3c4c(nn3CCN(C)C)c3cc(O)ccc3n(c1=O)c24	0.83	3.66	0.291	0.176		1.08	0.373	0.101	0.392		0.641	0.701		0.842	0.392	1.26		0.842	1	1.16
